Source: article PMC10905675, “INX-315, a Selective CDK2 Inhibitor, Induces Cell Cycle Arrest and Senescence in Solid Tumors” (Cancer Discovery, 2023)

Experiments:
Experiment in all cases: SelectScreen ZLYTE
Type in all cases: biochemical
Details in all cases: INX-0315 at 100nM
PASK = target: T1, PASK (Homo sapiens, UniProt Q96RG2)
T1 construct: purchased Thermo Fisher Scientific SelectScreen (plus Nanosyn / Reaction Biology for CDK/cyclin lines)
Method in brief: (§1)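 INX-315, single point 100 nmol/L, 1% DMSO; then 10-pt titration 1 µmol/L → 0.0495 nmol/L. Standard vendor conditions.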

DNA-PK = target: T2, DNA-PK (Homo sapiens, UniProt P78527)
T2 construct: purchased Thermo Fisher Scientific SelectScreen (plus Nanosyn / Reaction Biology for CDK/cyclin lines)
Method in brief: as §1

PHKG1 = target: T3, PHKG1 (Homo sapiens, UniProt Q16816)
T3 construct: purchased Thermo Fisher Scientific SelectScreen (plus Nanosyn / Reaction Biology for CDK/cyclin lines)
Method in brief: as §1

PAK2 (PAK65) = target: T4, PAK2 (PAK65) (Homo sapiens, UniProt Q13177)
T4 construct: purchased Thermo Fisher Scientific SelectScreen (plus Nanosyn / Reaction Biology for CDK/cyclin lines)
Method in brief: as §1

KIT V559D V654A = target: T5, KIT V559D V654A (Homo sapiens, UniProt P10721, V559D/V654A)
T5 construct: purchased Thermo Fisher Scientific SelectScreen (plus Nanosyn / Reaction Biology for CDK/cyclin lines)
Method in brief: as §1

STK25 (YSK1) = target: T6, STK25 (YSK1) (Homo sapiens, UniProt O00506)
T6 construct: purchased Thermo Fisher Scientific SelectScreen (plus Nanosyn / Reaction Biology for CDK/cyclin lines)
Method in brief: as §1

ADRBK1 (GRK2) = target: T7, ADRBK1 (GRK2) (Homo sapiens, UniProt P25098)
T7 construct: purchased Thermo Fisher Scientific SelectScreen (plus Nanosyn / Reaction Biology for CDK/cyclin lines)
Method in brief: as §1

STK4 (MST1) = target: T8, STK4 (MST1) (Homo sapiens, UniProt Q13043)
T8 construct: purchased Thermo Fisher Scientific SelectScreen (plus Nanosyn / Reaction Biology for CDK/cyclin lines)
Method in brief: as §1

AKT3 (PKB gamma) = target: T9, AKT3 (PKB gamma) (Homo sapiens, UniProt Q9Y243)
T9 construct: purchased Thermo Fisher Scientific SelectScreen (plus Nanosyn / Reaction Biology for CDK/cyclin lines)
Method in brief: as §1

ADRBK2 (GRK3) = target: T10, ADRBK2 (GRK3) (Homo sapiens, UniProt P35626)
T10 construct: purchased Thermo Fisher Scientific SelectScreen (plus Nanosyn / Reaction Biology for CDK/cyclin lines)
Method in brief: as §1

MKNK1 (MNK1) = target: T11, MKNK1 (MNK1) (Homo sapiens, UniProt Q9BUB5)
T11 construct: purchased Thermo Fisher Scientific SelectScreen (plus Nanosyn / Reaction Biology for CDK/cyclin lines)
Method in brief: as §1

CAMK2D (CaMKII delta) = target: T12, CAMK2D (CaMKII delta) (Homo sapiens, UniProt Q13557)
T12 construct: purchased Thermo Fisher Scientific SelectScreen (plus Nanosyn / Reaction Biology for CDK/cyclin lines)
Method in brief: as §1

CSNK1A1 (CK1 alpha 1) = target: T13, CSNK1A1 (CK1 alpha 1) (Homo sapiens, UniProt P48729)
T13 construct: purchased Thermo Fisher Scientific SelectScreen (plus Nanosyn / Reaction Biology for CDK/cyclin lines)
Method in brief: as §1

STK22B (TSSK2) = target: T14, STK22B (TSSK2) (Homo sapiens, UniProt Q96PF2)
T14 construct: purchased Thermo Fisher Scientific SelectScreen (plus Nanosyn / Reaction Biology for CDK/cyclin lines)
Method in brief: as §1

MAP2K1 (MEK1) = target: T15, MAP2K1 (MEK1) (Homo sapiens, UniProt Q02750)
T15 construct: purchased Thermo Fisher Scientific SelectScreen (plus Nanosyn / Reaction Biology for CDK/cyclin lines)
Method in brief: as §1

PTK6 (Brk) = target: T16, PTK6 (Brk) (Homo sapiens, UniProt Q13882)
T16 construct: purchased Thermo Fisher Scientific SelectScreen (plus Nanosyn / Reaction Biology for CDK/cyclin lines)
Method in brief: as §1

AURKC (Aurora C) = target: T17, AURKC (Aurora C) (Homo sapiens, UniProt Q9UQB9)
T17 construct: purchased Thermo Fisher Scientific SelectScreen (plus Nanosyn / Reaction Biology for CDK/cyclin lines)
Method in brief: as §1

FGFR3 V555M = target: T18, FGFR3 V555M (Homo sapiens, UniProt P22607, V555M)
T18 construct: purchased Thermo Fisher Scientific SelectScreen (plus Nanosyn / Reaction Biology for CDK/cyclin lines)
Method in brief: as §1

SGK (SGK1) = target: T19, SGK (SGK1) (Homo sapiens, UniProt O00141)
T19 construct: purchased Thermo Fisher Scientific SelectScreen (plus Nanosyn / Reaction Biology for CDK/cyclin lines)
Method in brief: as §1

CDK5/p35 = target: T20, CDK5/p35 (Homo sapiens, UniProt Q00535)
T20 construct: purchased Thermo Fisher Scientific SelectScreen (plus Nanosyn / Reaction Biology for CDK/cyclin lines)
Method in brief: as §1

EPHB3 = target: T21, EPHB3 (Homo sapiens, UniProt P54753)
T21 construct: purchased Thermo Fisher Scientific SelectScreen (plus Nanosyn / Reaction Biology for CDK/cyclin lines)
Method in brief: as §1

PRKACA (PKA) = target: T22, PRKACA (PKA) (Homo sapiens, UniProt P17612)
T22 construct: purchased Thermo Fisher Scientific SelectScreen (plus Nanosyn / Reaction Biology for CDK/cyclin lines)
Method in brief: as §1

GRK5 = target: T23, GRK5 (Homo sapiens, UniProt P34947)
T23 construct: purchased Thermo Fisher Scientific SelectScreen (plus Nanosyn / Reaction Biology for CDK/cyclin lines)
Method in brief: as §1

IKBKE (IKK epsilon) = target: T24, IKBKE (IKK epsilon) (Homo sapiens, UniProt Q14164)
T24 construct: purchased Thermo Fisher Scientific SelectScreen (plus Nanosyn / Reaction Biology for CDK/cyclin lines)
Method in brief: as §1

KDR (VEGFR2) = target: T25, KDR (VEGFR2) (Homo sapiens, UniProt P35968)
T25 construct: purchased Thermo Fisher Scientific SelectScreen (plus Nanosyn / Reaction Biology for CDK/cyclin lines)
Method in brief: as §1

PAK6 = target: T26, PAK6 (Homo sapiens, UniProt Q9NQU5)
T26 construct: purchased Thermo Fisher Scientific SelectScreen (plus Nanosyn / Reaction Biology for CDK/cyclin lines)
Method in brief: as §1

PRKG2 (PKG2) = target: T27, PRKG2 (PKG2) (Homo sapiens, UniProt Q13237)
T27 construct: purchased Thermo Fisher Scientific SelectScreen (plus Nanosyn / Reaction Biology for CDK/cyclin lines)
Method in brief: as §1

EPHA5 = target: T28, EPHA5 (Homo sapiens, UniProt P54756)
T28 construct: purchased Thermo Fisher Scientific SelectScreen (plus Nanosyn / Reaction Biology for CDK/cyclin lines)
Method in brief: as §1

SGK2 = target: T29, SGK2 (Homo sapiens, UniProt Q9HBY8)
T29 construct: purchased Thermo Fisher Scientific SelectScreen (plus Nanosyn / Reaction Biology for CDK/cyclin lines)
Method in brief: as §1

STK3 (MST2) = target: T30, STK3 (MST2) (Homo sapiens, UniProt Q13188)
T30 construct: purchased Thermo Fisher Scientific SelectScreen (plus Nanosyn / Reaction Biology for CDK/cyclin lines)
Method in brief: as §1

CHEK2 (CHK2) = target: T31, CHEK2 (CHK2) (Homo sapiens, UniProt O96017)
T31 construct: purchased Thermo Fisher Scientific SelectScreen (plus Nanosyn / Reaction Biology for CDK/cyclin lines)
Method in brief: as §1

PKN1 (PRK1) = target: T32, PKN1 (PRK1) (Homo sapiens, UniProt Q16512)
T32 construct: purchased Thermo Fisher Scientific SelectScreen (plus Nanosyn / Reaction Biology for CDK/cyclin lines)
Method in brief: as §1

PIM2 = target: T33, PIM2 (Homo sapiens, UniProt Q9P1W9)
T33 construct: purchased Thermo Fisher Scientific SelectScreen (plus Nanosyn / Reaction Biology for CDK/cyclin lines)
Method in brief: as §1

IRAK4 = target: T34, IRAK4 (Homo sapiens, UniProt Q9NWZ3)
T34 construct: purchased Thermo Fisher Scientific SelectScreen (plus Nanosyn / Reaction Biology for CDK/cyclin lines)
Method in brief: as §1

MAP4K2 (GCK) = target: T35, MAP4K2 (GCK) (Homo sapiens, UniProt Q12851)
T35 construct: purchased Thermo Fisher Scientific SelectScreen (plus Nanosyn / Reaction Biology for CDK/cyclin lines)
Method in brief: as §1

AMPK (A2/B1/G3) = target: T36, AMPK (A2/B1/G3) (Homo sapiens, UniProt P54646)
T36 construct: purchased Thermo Fisher Scientific SelectScreen (plus Nanosyn / Reaction Biology for CDK/cyclin lines)
Method in brief: as §1

NEK2 = target: T37, NEK2 (Homo sapiens, UniProt P51955)
T37 construct: purchased Thermo Fisher Scientific SelectScreen (plus Nanosyn / Reaction Biology for CDK/cyclin lines)
Method in brief: as §1

T36 sequence (P54646 whole entry): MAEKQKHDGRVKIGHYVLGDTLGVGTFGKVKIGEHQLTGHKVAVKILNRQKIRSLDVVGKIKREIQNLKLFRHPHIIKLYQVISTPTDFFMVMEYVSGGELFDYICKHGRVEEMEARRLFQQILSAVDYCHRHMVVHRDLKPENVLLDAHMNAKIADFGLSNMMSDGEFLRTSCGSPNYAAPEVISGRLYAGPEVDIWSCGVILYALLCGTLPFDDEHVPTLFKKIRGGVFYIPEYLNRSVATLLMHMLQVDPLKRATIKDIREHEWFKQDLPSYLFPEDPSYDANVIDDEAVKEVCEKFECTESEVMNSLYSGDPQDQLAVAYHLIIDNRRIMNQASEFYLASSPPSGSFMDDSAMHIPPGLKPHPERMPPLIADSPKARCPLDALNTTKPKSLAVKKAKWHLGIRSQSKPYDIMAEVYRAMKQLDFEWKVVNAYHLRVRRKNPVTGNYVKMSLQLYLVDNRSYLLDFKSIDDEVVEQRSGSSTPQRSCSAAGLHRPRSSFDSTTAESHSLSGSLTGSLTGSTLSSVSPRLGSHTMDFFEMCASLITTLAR
T36 sequence (Q9Y478 whole entry partner): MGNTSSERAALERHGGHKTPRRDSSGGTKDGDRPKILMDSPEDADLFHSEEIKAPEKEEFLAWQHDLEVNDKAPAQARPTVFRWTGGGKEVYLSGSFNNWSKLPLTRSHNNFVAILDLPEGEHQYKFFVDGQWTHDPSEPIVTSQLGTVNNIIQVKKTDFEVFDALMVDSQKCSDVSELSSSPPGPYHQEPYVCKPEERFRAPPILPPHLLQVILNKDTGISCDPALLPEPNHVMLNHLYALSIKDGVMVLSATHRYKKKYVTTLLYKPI
T36 sequence (Q9UGI9 whole entry partner): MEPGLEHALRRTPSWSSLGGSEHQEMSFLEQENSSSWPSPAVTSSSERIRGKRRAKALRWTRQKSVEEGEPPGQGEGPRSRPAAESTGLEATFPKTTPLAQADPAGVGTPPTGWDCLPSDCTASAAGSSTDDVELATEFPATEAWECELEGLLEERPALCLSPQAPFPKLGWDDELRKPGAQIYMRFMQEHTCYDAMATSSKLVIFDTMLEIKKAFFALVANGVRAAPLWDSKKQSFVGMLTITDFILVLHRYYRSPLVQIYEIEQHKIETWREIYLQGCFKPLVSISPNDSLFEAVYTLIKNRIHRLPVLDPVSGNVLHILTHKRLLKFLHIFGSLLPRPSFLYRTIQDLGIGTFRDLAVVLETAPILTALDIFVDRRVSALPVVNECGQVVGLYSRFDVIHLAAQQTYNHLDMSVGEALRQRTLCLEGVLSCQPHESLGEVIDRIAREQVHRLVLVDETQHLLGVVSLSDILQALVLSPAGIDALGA
T3 sequence (Q16816 whole entry): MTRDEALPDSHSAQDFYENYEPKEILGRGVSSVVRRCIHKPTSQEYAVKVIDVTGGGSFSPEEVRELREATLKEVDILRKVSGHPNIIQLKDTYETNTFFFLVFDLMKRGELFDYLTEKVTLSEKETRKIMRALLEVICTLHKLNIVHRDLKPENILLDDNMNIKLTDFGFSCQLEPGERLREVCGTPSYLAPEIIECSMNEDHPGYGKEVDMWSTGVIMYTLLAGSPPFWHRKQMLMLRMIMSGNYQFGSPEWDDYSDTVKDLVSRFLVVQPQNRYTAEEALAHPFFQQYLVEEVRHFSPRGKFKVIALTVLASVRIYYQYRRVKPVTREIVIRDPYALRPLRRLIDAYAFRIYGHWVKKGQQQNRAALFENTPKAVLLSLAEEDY
T7 sequence (P25098 whole entry): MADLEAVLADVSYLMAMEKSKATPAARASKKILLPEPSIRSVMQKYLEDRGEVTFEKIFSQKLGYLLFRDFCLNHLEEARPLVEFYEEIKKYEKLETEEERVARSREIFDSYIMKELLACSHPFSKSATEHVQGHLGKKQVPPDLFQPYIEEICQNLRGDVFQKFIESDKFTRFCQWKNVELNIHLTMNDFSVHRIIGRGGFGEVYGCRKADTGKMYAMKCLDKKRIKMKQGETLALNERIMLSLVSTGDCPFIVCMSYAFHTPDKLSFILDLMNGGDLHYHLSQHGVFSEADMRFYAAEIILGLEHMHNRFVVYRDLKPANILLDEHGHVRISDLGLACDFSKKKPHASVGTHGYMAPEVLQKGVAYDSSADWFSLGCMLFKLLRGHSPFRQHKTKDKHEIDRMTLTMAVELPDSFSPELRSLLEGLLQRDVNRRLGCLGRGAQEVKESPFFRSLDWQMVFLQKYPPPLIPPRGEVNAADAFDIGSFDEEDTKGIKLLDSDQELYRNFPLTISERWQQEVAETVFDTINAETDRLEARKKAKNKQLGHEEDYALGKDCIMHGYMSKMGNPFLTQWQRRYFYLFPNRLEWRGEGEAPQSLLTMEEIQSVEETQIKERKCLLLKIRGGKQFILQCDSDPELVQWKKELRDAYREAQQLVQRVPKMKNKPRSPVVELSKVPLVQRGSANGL
T5 sequence (P10721 26-976 V559D/V654A): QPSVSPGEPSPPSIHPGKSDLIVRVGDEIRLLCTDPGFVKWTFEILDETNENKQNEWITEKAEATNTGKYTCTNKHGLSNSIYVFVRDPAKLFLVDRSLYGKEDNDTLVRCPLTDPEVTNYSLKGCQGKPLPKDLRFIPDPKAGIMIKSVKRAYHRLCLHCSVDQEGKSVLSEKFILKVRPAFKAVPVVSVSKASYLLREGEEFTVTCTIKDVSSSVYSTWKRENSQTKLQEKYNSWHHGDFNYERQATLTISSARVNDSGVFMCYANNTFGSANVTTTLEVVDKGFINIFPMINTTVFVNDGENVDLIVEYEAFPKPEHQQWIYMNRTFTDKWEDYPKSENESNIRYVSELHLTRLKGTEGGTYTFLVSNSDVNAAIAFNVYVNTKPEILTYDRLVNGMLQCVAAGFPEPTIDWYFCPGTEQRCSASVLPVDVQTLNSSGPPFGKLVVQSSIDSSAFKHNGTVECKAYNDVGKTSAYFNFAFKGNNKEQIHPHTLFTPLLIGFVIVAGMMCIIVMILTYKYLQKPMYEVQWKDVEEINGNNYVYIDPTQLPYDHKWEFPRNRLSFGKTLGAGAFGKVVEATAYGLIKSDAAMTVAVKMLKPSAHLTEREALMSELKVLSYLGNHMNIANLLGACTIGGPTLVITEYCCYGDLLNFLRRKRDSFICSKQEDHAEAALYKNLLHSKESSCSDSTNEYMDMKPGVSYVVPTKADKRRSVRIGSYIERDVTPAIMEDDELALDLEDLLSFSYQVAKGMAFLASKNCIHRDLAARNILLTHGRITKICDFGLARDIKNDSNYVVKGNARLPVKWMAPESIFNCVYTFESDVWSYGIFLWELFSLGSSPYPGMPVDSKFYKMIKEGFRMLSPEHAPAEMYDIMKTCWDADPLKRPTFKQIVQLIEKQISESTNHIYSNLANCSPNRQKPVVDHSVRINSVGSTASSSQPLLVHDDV
T24 sequence (Q14164 whole entry): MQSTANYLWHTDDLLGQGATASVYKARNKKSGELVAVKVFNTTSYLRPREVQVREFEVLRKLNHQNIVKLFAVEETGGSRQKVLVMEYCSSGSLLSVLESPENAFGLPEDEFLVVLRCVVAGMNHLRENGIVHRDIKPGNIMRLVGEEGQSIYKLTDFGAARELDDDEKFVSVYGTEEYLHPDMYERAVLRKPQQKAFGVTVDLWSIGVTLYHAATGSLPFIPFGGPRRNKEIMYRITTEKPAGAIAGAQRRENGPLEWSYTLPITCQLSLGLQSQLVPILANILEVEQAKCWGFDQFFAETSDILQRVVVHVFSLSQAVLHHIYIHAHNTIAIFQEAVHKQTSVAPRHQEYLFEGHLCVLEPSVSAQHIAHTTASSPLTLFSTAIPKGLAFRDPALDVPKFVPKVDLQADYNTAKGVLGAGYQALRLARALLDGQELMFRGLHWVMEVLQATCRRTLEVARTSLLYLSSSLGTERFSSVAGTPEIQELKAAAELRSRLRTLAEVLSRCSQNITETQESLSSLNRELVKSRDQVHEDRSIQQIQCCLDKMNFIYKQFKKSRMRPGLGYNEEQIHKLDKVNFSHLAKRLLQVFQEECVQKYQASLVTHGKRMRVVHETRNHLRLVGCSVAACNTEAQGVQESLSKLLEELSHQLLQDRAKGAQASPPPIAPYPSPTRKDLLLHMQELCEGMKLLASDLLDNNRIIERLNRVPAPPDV
T31 sequence (O96017 whole entry): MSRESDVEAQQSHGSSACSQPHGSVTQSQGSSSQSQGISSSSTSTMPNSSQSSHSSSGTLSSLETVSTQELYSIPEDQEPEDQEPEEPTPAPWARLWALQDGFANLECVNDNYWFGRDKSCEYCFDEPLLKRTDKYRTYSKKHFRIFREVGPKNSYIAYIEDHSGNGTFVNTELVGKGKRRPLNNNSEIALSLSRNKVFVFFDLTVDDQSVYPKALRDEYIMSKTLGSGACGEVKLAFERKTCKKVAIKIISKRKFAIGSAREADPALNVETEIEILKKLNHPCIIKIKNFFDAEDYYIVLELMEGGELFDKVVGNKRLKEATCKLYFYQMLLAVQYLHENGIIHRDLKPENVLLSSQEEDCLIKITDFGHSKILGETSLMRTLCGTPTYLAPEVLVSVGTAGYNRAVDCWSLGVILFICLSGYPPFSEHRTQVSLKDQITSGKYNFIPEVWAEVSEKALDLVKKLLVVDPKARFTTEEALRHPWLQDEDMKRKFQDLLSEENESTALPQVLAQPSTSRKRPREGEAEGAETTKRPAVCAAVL
T14 sequence (Q96PF2 whole entry): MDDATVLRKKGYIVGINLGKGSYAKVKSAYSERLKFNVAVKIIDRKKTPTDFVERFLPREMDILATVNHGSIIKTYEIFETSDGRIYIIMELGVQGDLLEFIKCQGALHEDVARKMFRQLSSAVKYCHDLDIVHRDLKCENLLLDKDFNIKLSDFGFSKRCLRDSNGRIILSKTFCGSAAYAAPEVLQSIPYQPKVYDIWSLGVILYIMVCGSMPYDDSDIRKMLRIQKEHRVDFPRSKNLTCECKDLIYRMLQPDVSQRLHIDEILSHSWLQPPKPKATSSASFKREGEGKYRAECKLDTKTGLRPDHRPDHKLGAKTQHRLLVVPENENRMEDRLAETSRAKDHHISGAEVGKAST

## NS(=O)(=O)c1ccc(Nc2ncc3cc4n(c3n2)C2(CCCCC2)C(=O)NN4)cc1 [INX-315]
PASK
  inhibition at 0.1 µM: 2%
DNA-PK
  inhibition at 0.1 µM: 6%
PHKG1
  inhibition at 0.1 µM: 4%
PAK2 (PAK65)
  inhibition at 0.1 µM: 5%
KIT V559D V654A
  inhibition at 0.1 µM: 7%
STK25 (YSK1)
  inhibition at 0.1 µM: 1%
ADRBK1 (GRK2)
  inhibition at 0.1 µM: 0%
STK4 (MST1)
  inhibition at 0.1 µM: 26%
AKT3 (PKB gamma)
  inhibition at 0.1 µM: 6%
ADRBK2 (GRK3)
  inhibition at 0.1 µM: 1%
MKNK1 (MNK1)
  inhibition at 0.1 µM: 3%
CAMK2D (CaMKII delta)
  inhibition at 0.1 µM: 1%
CSNK1A1 (CK1 alpha 1)
  inhibition at 0.1 µM: 5%
STK22B (TSSK2)
  inhibition at 0.1 µM: -2%
MAP2K1 (MEK1)
  inhibition at 0.1 µM: 15%
PTK6 (Brk)
  inhibition at 0.1 µM: -1%
AURKC (Aurora C)
  inhibition at 0.1 µM: 53%
FGFR3 V555M
  inhibition at 0.1 µM: 21%
SGK (SGK1)
  inhibition at 0.1 µM: 6%
CDK5/p35
  inhibition at 0.1 µM: 87%
EPHB3
  inhibition at 0.1 µM: 3%
PRKACA (PKA)
  inhibition at 0.1 µM: 4%
GRK5
  inhibition at 0.1 µM: 24%
IKBKE (IKK epsilon)
  inhibition at 0.1 µM: 10%
KDR (VEGFR2)
  inhibition at 0.1 µM: 42%
PAK6
  inhibition at 0.1 µM: 19%
PRKG2 (PKG2)
  inhibition at 0.1 µM: -1%
EPHA5
  inhibition at 0.1 µM: 1%
SGK2
  inhibition at 0.1 µM: 5%
STK3 (MST2)
  inhibition at 0.1 µM: 19%
CHEK2 (CHK2)
  inhibition at 0.1 µM: 7%
PKN1 (PRK1)
  inhibition at 0.1 µM: 7%
PIM2
  inhibition at 0.1 µM: 5%
IRAK4
  inhibition at 0.1 µM: 10%
MAP4K2 (GCK)
  inhibition at 0.1 µM: 0%
AMPK (A2/B1/G3)
  inhibition at 0.1 µM: 17%
NEK2
  inhibition at 0.1 µM: 3%
